Earlier results as cited in patent publication US5717095A, “Nucleotide analogs” (Gilead Sciences, Inc., priority 1996, dated 1998).

System: intraperitoneal P388 leukemia
Conditions: murine; cited from earlier work

## Nc1ncnc2c1ncn2CC(CO)OCP(=O)(O)O (stereo not shown) [HPMPA]
  antitumor activity: active
